Active and inactive are the calls of the source.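 Rule for the calls: active = compounds giving half or more protection of infected cells from virus-caused growth loss, again on retest; inactive = the rest.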
Tested on: CEM cells HIV-1 protection, formazan growth assay
Assay: NCI AIDS Antiviral Assay
Details: for IC50: measured here: growth of uninfected CEM cells
Procedure, shortened: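 Protection of CEM cells against HIV-1 measured as cell growth via soluble formazan read-out, with five concentrations tested on both infected and uninfected cells; failure to protect may reflect toxicity.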

SMILES	EC50 [µM]	IC50 [µM]	outcome
COc1cc(C2c3cc4c(cc3OC(NNS(=O)(=O)c3ccc(C)cc3)C2C)OCO4)cc(OC)c1OC (stereo unspecified)	> 20	0.372	
C=Cc1ccccc1C1(O)C=CC(OC)(OC)C=C1	> 200	7.94	
CCCCCCCCCCCCCCCC(=O)Nc1ccn(C2CCC(COP(=O)(O)OC3CC(n4cc(C)c(=O)[nH]c4=O)OC3CO)O2)c(=O)n1 (stereo unspecified)	0.0933	45.7	
COC(=O)C1(CCCCl)CCCN1C(=O)OC(C)(C)C (stereo unspecified)	> 200	> 200	
O=C(NCCCCCCNC(=O)c1ccccn1)c1ccccn1	> 200	191	
CCCCCCCCCCOCCC(=O)O	> 200	89.1	
CC(C)CCCC(C)[C@H]1CC[C@H]2[C@H]3CC[C@@H]4C[C@H](CCC=C(c5cc(Cl)c(O)c(C(=O)O)c5)c5cc(Cl)c(O)c(C(=O)O)c5)CC[C@]4(C)[C@H]3CC[C@]12C (stereo partly specified)	41.7	> 200	
OC1CC(O)O[C@H](c2ccccc2)C1 (stereo partly specified)			inactive
N#Cc1cnc(N)nc1NCC1(CO)CC(CCc2ccccc2)C1 (stereo unspecified)	> 200	7.24	
CC(=O)OC1CC2C(C)(C)CCC[C@]2(C)C2=C1C(O)=C(C(C)C)C(=O)C2=O (stereo partly specified)			inactive
NNC(=O)C(=O)N/N=C1/CCCC1C(=O)CCC(=O)Nc1ccc(Cl)cc1 (stereo unspecified)	> 66.1	> 66.1	
C=CCO/N=C(\OC(=O)c1ccc([N+](=O)[O-])cc1)c1ccccc1	> 151	> 151	
O=C(O)c1cc2ccccc2c(=O)s1	> 331	> 331	
Cc1occc1C(=S)Nc1ccc(Cl)c(C(=O)OC2CCCCC2)c1	0.012	7.24	
Cc1ccc(C(=O)OCC(C)C)cc1N=NN(C)C	> 27.5	> 27.5	
CCCCCCCCCC=C(c1cc(Br)cc(C(=O)O)c1O)c1cc(Br)cc(C(=O)O)c1O	> 22.9	> 22.9	
Cc1ccc(S(=O)(=O)N2C3C=CC(C3)[C@@H]2C(Cl)(Cl)Cl)cc1 (stereo partly specified)	> 200	30.9	
C=CCCC1(CC(Sc2ccccc2)P(=O)(c2ccccc2)c2ccccc2)OCCO1 (stereo unspecified)	> 200	> 200	
CCC[CH2][Sn]1([CH2]CCC)[S]CC[N]1S(=O)(=O)c1ccc(C)cc1	> 200	0.0776	
COC(=O)[C@H](Cc1ccccc1)NC(=O)NCCN(CCNC(=O)N[C@@H](Cc1ccccc1)C(=O)OC)C(=O)N[C@@H](Cc1ccccc1)C(=O)OC	> 200	33.9	
O=C1c2cccnc2-c2nccc3c2c1nc1cc(Br)ccc13	> 2.69	0.132	
CCCCCCCCC(=O)NCCCNCCCNC(=O)CCCCCCCC	> 100	10	

SMILES	EC50 [µM]	IC50 [µM]	outcome
[N-]=[N+]=NCC(CO)OCn1cc(Cc2cccc(OCc3ccccc3)c2)c(=O)[nH]c1=O (stereo unspecified)			inactive
O=C1Sc2ccccc2C(=O)N2C1CSC2c1ccccc1 (stereo unspecified)	> 200	> 200	
C=CCSc1n[nH]c(=S)c2nc[nH]c12	> 200	129	
Cc1cc2cc3ccc(Cl)nn3c2nn1	> 200	> 200	
Cc1nn(C(=O)Cc2ccccc2)c2c1C(c1ccc(O)cc1)SC(N)=N2 (stereo unspecified)	83.2	> 200	
Cc1cc(=O)[nH]c(NN2C(Cl)C(=O)C2c2cccc(Cl)c2)n1 (stereo unspecified)	> 200	30.2	
Nc1ncnc2c1nc(Br)n2C(C=O)OC(C=O)CO (stereo unspecified)			inactive
CC(C)CCCC(C)[C@H]1CC[C@H]2[C@@H]3CC[C@H]4C[C@@H](CCC=C(c5cc(Cl)c(OCc6cccc(B(O)O)c6)c(C(=O)O)c5)c5cc(Cl)c(OCc6cccc(B(O)O)c6)c(C(=O)O)c5)CC[C@]4(C)[C@H]3CC[C@]12C (stereo partly specified)	138	> 200	
CC(=O)[n+]1nc(-c2nc(N)nc(NC3C4CC5CC(C4)CC3C5)n2)oc1-c1ccc(Cl)cc1 (stereo unspecified)	> 11.2	> 11.2	
CC1Cn2c(nc3ccccc32)NC1=O (stereo unspecified)	> 200	> 200	
O=[N+]([O-])/C(C(Cl)=C(Cl)Cl)=C(/Br)SCc1ccccc1	> 20	0.575	
CC(C#N)N(C(C)C#N)N(C)C (stereo unspecified)			inactive
OCCN(CCO)CCCNc1ccnc2cc(Cl)ccc12	> 200	18.2	
C=C1CCC2CC1C(C(=O)c1c[nH]c3ccccc13)=NC2(C)C (stereo unspecified)	> 407	> 407	
C#CCNC(=O)N(CC#C)N=O	> 1100	166	
O=C(O)C(Cc1ccc(O)cn1)NC(=O)C(F)(F)F (stereo unspecified)	> 200	> 200	
O=C(/C(C=NC(=S)c1ccncc1)=C(/O)C1=CC=CCC1)c1ccccc1			inactive
COc1ccc(/C(C)=N\NS(=O)(=O)c2ccc(NC(C)=O)cc2)cc1	> 182	> 182	
N#CN/C(N)=N/CO	> 776	46.8	
COc1ccc(-c2cc(NC(=O)c3cnccn3)c(=O)oc2C)cc1	> 200	170	
Cn1c(=O)c2c(nc3sc4ncccc4c(=O)n32)n(C)c1=O	> 151	> 151	
N#CC(/C(CCCC(=O)Nc1cccc([N+](=O)[O-])c1)=N\NC(=O)c1c(O)ccc2ccccc12)c1nc2ccccc2s1 (stereo unspecified)			inactive

— PubChem BioAssay AID179 (DTP/NCI, 2004)
